Structures are written as SMILES.

The target in the first experiment is T1, human TREK-1 (Homo sapiens, UniProt O95069).
T1 construct: expressed in transfected cells
T1 sequence (O95069 1-426): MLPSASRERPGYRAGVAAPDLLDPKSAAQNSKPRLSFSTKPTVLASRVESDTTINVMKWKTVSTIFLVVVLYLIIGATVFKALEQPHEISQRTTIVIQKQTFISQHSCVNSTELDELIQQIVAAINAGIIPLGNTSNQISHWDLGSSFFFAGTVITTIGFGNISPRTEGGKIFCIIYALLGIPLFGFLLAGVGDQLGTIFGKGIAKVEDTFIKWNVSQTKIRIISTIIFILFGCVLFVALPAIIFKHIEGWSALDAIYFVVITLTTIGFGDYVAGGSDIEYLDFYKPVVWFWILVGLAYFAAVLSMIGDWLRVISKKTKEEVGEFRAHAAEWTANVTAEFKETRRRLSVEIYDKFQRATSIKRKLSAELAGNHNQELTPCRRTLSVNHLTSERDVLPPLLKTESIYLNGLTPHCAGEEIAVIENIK
Kind of experiment: TREK-1 Thallium (Tl+) flux assay, Method 1. As to conditions: TREK-1 Thallium (Tl+) flux assay; no *^12 (Method 2) mark on these rows. The experiment is classed as cell-based. As to the method:
The term “thallium flux assay” herein refers to a fluorescence-based assay used to monitor the activity of TREK channels. Thallium is a congener of potassium that readily fluxes through the pore of TREK channels. Thallium flux is measured using a commercially available, thallium-sensitive fluorescent dye called Thallos. The detail method is described below.
CHO-K1 cells stably expressing human TREK-1 were plated in 384-well plates, cultured overnight, loaded with Thallos dye the following day. Test compounds or control compound (tert-butyl (3-((4-(benzyloxy)-2-methylphenyl)carbamoyl)-4-chlorophenyl)carbamate) or 0.3% DMSO (vehicle control) which were prepared on separate plates were added to the cell plates and incubated for 10 min, and then the cells were treated with thallium stimulus buffer to initiate thallium flux. To measure the efficacy and potency of test compounds, the change in fluorescence intensity (ΔRatio) and % inhibition were calculated using the following equations:
ΔRatio=(fluorescence intensity at 25 seconds after thallium addition)/(average of fluorescent intensity before thallium addition)
Regarding `CC(=O)N1CCC[C@H](Cn2ncc(Cl)c2C(=O)Nc2ncc(C#Cc3ccccc3)cc2C)C1` [Compound 296, (S)-1-((1-acetylpiperidin-3-yl)methyl)-4-chloro-N-(3-methyl-5-(phenylethynyl)pyridin-2-yl)-1H-pyrazole-5-carboxamide], the IC50 worked out at 530 nM. The compound `Cc1cc(C#Cc2ccccc2)cnc1NC(=O)c1c(Cl)cnn1CC1CN(C(=O)C2CC2)C1` [Compound 274, 4-chloro-1-((1-(cyclopropanecarbonyl)azetidin-3-yl)methyl)-N-(3-methyl-5-(phenylethynyl)pyridin-2-yl)-1H-pyrazole-5-carboxamide] came in with an IC50 of 470 nM. Same read-out and setting: then `CC(=O)N1CCC2(CC(n3ncc(Cl)c3C(=O)Nc3ncc(C#Cc4ccc(F)cc4)cc3C)C2)C1` (stereo not shown) [Compound 312, 1-(6-acetyl-6-azaspiro[3.4]octan-2-yl)-4-chloro-N-{5-[(4-fluorophenyl)ethynyl]-3-methylpyridin-2-yl}-1H-pyrazole-5-carboxamide], with 590 nM. Same read-out and setting: then `Cc1cc(C#Cc2ccccc2)cnc1NC(=O)c1c(Cl)cnn1[C@H]1C[C@@H]2CN(C(=O)OC(C)(C)C)C[C@@H]2C1` [Compound 329, tert-butyl (3aR,5s,6aS)-5-(4-chloro-5-{[3-methyl-5-(phenylethynyl)pyridin-2-yl]carbamoyl}-1H-pyrazol-1-yl)hexahydrocyclopenta[c]pyrrole-2(1H)-carboxylate], with 650 nM; and `CC(=O)N1CCC(n2ncc(Cl)c2C(=O)Nc2cnc(C#Cc3ccccc3)c(F)c2)CC1` [Compound 378, 1-(1-acetylpiperidin-4-yl)-4-chloro-N-(5-fluoro-6-(phenylethynyl)pyridin-3-yl)-1H-pyrazole-5-carboxamide], with 5680 nM; and `Cc1ncc(Cn2ncc(Cl)c2C(=O)Nc2ncc(C#Cc3ccccc3)cc2C)s1` [Compound 374, 4-chloro-N-(3-methyl-5-(phenylethynyl)pyridin-2-yl)-1-((2-methylthiazol-5-yl)methyl)-1H-pyrazole-5-carboxamide], with 1130 nM.

As for `Cc1cc(C#Cc2ccccc2)cnc1NC(=O)c1c(Cl)cnn1CC1CCN(C(=O)OC(C)(C)C)CC1C` (stereo not shown) [Compound 265, tert-butyl 4-((4-chloro-5-((3-methyl-5-(phenylethynyl)pyridin-2-yl)carbamoyl)-1H-pyrazol-1-yl)methyl)-3-methylpiperidine-1-carboxylate], 430 nM corresponded to half-maximal inhibition (IC50). The same measure, in the same setting: then `CC(C)(C)OC(=O)N[C@H]1CC[C@@H](n2ncc(Cl)c2C(=O)Nc2ncc(C#Cc3ccccc3)cc2F)CC1` [Compound 294, tert-butyl (cis-4-(4-chloro-5-((3-fluoro-5-(phenylethynyl)pyridin-2-yl)carbamoyl)-1H-pyrazol-1-yl)cyclohexyl)carbamate], with 530 nM. The compound `Cc1cc(C#Cc2ccccc2)cnc1NC(=O)c1c(Cl)cnn1[C@H]1C[C@@H](NC(=O)OC(C)(C)C)C1` [Compound 357, tert-butyl (cis-3-(4-chloro-5-((3-methyl-5-(phenylethynyl)pyridin-2-yl)carbamoyl)-1H-pyrazol-1-yl)cyclobutyl)carbamate] displayed an IC50 of 870 nM. The compound `CC(=O)N1CCC(Cn2ncc(Cl)c2C(=O)Nc2ncc(C#Cc3ccc(F)cc3)cc2C)C(C)C1` (stereo not shown) [Compound 244, 1-((1-acetyl-3-methylpiperidin-4-yl)methyl)-4-chloro-N-(5-((4-fluorophenyl)ethynyl)-3-methylpyridin-2-yl)-1H-pyrazole-5-carboxamide] showed an IC50 of 380 nM. For `CC(C)(C)OC(=O)N[C@H]1C[C@H](n2ncc(Cl)c2C(=O)Nc2ncc(C#Cc3ccccc3)cc2F)C1` [Compound 214, tert-butyl (trans-3-(4-chloro-5-((3-fluoro-5-(phenylethynyl)pyridin-2-yl)carbamoyl)-1H-pyrazol-1-yl)cyclobutyl)carbamate], half-maximal inhibition (IC50) was put at 330 nM. The compound `Cc1cc(C#Cc2ccc(F)cc2)cnc1NC(=O)c1c(Cl)cnn1C1CC2(CCN(C(=O)C3COCCO3)C2)C1` (stereo not shown) [Compound 310, 4-chloro-1-[6-(1,4-dioxane-2-carbonyl)-6-azaspiro[3.4]octan-2-yl]-N-{5-[(4-fluorophenyl)ethynyl]-3-methylpyridin-2-yl}-1H-pyrazole-5-carboxamide] gave an IC50 of 580 nM.

In the case of `CC(=O)N1CCC(Cn2ncc(Cl)c2C(=O)Nc2ncc(C#Cc3ccc(F)cc3)cc2C)C(F)(F)C1` (stereo not shown) [Compound 313, 1-((1-acetyl-3,3-difluoropiperidin-4-yl)methyl)-4-chloro-N-(5-((4-fluorophenyl)ethynyl)-3-methylpyridin-2-yl)-1H-pyrazole-5-carboxamide], the IC50 was determined as 590 nM.

Still in this experiment, the particulars now being: TREK-1 Thallium (Tl+) flux assay; values without footnote *12 are Method 1.
In the case of `O=C(Nc1ncc(C#Cc2cccs2)cc1F)c1c(Cl)cnn1C1CCN(C(=O)C2COCCO2)CC1` (stereo not shown) [Compound 95, 1-(1-(1,4-dioxane-2-carbonyl)piperidin-4-yl)-4-chloro-N-(3-fluoro-5-(thiophen-2-ylethynyl)pyridin-2-yl)-1H-pyrazole-5-carboxamide], it took 180 nM to reach half-maximal inhibition (IC50). In turn, `CC(C)(C)C(=O)N1CCC(n2ncc(Cl)c2C(=O)Nc2ncc(C#Cc3ccccc3)cc2F)CC1` [Compound 100, 4-chloro-N-(3-fluoro-5-(phenylethynyl)pyridin-2-yl)-1-(1-pivaloylpiperidin-4-yl)-1H-pyrazole-5-carboxamide] displayed an IC50 of 190 nM.

Compound `Cc1cc(C#Cc2cccs2)cnc1NC(=O)c1c(Cl)cnn1C1CC2(C1)CN(C(=O)C1CC1)C2` [Compound 36, 4-chloro-1-(2-(cyclopropanecarbonyl)-2-azaspiro[3.3]heptan-6-yl)-N-(3-methyl-5-(thiophen-2-ylethynyl)pyridin-2-yl)-1H-pyrazole 5-carboxamide] gave an IC50 of 110 nM. In turn, `CC(=O)N1CCCC(Cn2ncc(Cl)c2C(=O)Nc2ncc(C#Cc3ccccc3)cc2F)C1` (stereo not shown) [Compound 177, 1-((1-acetylpiperidin-3-yl)methyl)-4-chloro-N-(3-fluoro-5-(phenylethynyl)pyridin-2-yl)-1H-pyrazole-5-carboxamide] came in with a 50% inhibitory concentration (IC50) of 270 nM. For `CC(C1CCN(C(=O)OC(C)(C)C)CC1)n1ncc(Cl)c1C(=O)Nc1ncc(C#Cc2ccccc2)cc1F` (stereo not shown) [Compound 78, tert-butyl 4-(1-(4-chloro-5-((3-fluoro-5-(phenylethynyl)pyridin-2-yl)carbamoyl)-1H-pyrazol-1-yl)ethyl)piperidine-1-carboxylate], the IC50 turned out to be 160 nM. `CC(C)C(=O)N1CCC(n2ncc(Cl)c2C(=O)Nc2ncc(C#Cc3cccs3)cc2F)CC1` [Compound 175, 4-chloro-N-(3-fluoro-5-(thiophen-2-ylethynyl)pyridin-2-yl)-1-(1-isobutyrylpiperidin-4-yl)-1H-pyrazole-5-carboxamide]: the IC50 was found to be 270 nM.

With `Cc1cc(C#Cc2ccccc2)cnc1NC(=O)c1c(Cl)cnn1CC1CCN(C(=O)C(C)C)CC1` [Compound 53, 4-chloro-1-((1-isobutyrylpiperidin-4-yl)methyl)-N-(3-methyl-5-(phenylethnyl)pyridin-2-yl)-1H-pyrazole-5-carboxamide], the IC50 stood at 140 nM. For `CC(=O)N1CCC(CCn2ncc(Cl)c2C(=O)Nc2ncc(C#Cc3cccc(F)c3)cc2C)CC1` [Compound 133, 1-(2-(1-acetylpiperidin-4-yl)ethyl)-4-chloro-N-(5-((3-fluorophenyl)ethynyl)-3-methylpyridin-2-yl)-1H-pyrazole-5-carboxamide], 220 nM corresponded to half-maximal inhibition (IC50).

In turn, `CCNC(=O)N1C[C@H]2C[C@H](n3ncc(Cl)c3C(=O)Nc3ncc(C#Cc4cccs4)cc3C)C[C@H]2C1` [Compound 74, (3aR,5s,6aS)-5-[4-chloro-5-({3-methyl-5-[(thiophen-2-yl)ethynyl]pyridin-2-yl}carbamoyl)-1H-pyrazol-1-yl]-N-ethylhexahydrocyclopenta[c]pyrrole-2(1H)-carboxamide] gave a 50% inhibitory concentration (IC50) of 160 nM. `N#CC1(Cn2ncc(Cl)c2C(=O)Nc2ncc(C#Cc3ccccc3)cc2F)CC1` [Compound 141, 4-chloro-1-((1-cyanocyclopropyl)methyl)-N-(3-fluoro-5-(phenylethynyl)pyridin-2-yl)-1H-pyrazole-5-carboxamide] registered an IC50 of 230 nM.

The compound `Cc1cc(C#Cc2cccs2)cnc1NC(=O)c1c(Cl)cnn1C1CC2(C1)CN(C(=O)C1COCCO1)C2` (stereo not shown) [Compound 97, 1-(2-(1,4-dioxane-2-carbonyl)-2-azaspiro[3.3]heptan-6-yl)-4-chloro-N-(3-methyl-5-(thiophen-2-ylethynyl)pyridin-2-yl)-1H-pyrazole-5-carboxamide] had an IC50 of 180 nM.

The experiment is the same for the next values; noted with them: read-out: Tl^+ Assay % inhibition at 30 uM (Minus value indicates activation of TREK-1); at 30 uM; CHO-K1 cells stably expressing human TREK-1; minus = activation.
Regarding `CC(=O)N1CCC(CCn2cc(Cl)c(C(=O)Nc3ncc(C#Cc4ccc(F)cc4)cc3C)n2)CC1` [Compound 442, 1-(2-(1-acetylpiperidin-4-yl)ethyl)-4-chloro-N-(5-((4-fluorophenyl)ethynyl)-3-methylpyridin-2-yl)-1H-pyrazole-3-carboxamide], the inhibition at 30 µM is -118%.

The record behind these values is patent US20240182445A1 (ONO PHARMACEUTICAL CO., LTD., priority 2019, published 2024).
